Measurements from article PMC8151276, “An Integrated Approach toward NanoBRET Tracers for Analysis of GPCR Ligand Engagement” (Molecules, 2021).
Each block holds one compound with its values, some of them ahead of it.

Experiments:
HTR1A = biological target: T1, HTR1A (Homo sapiens, UniProt P08908); assay: NanoBRET screen HiBiT-HTR1A in HEK293; format: binding
T1 construct: purchased Promega (in-house HiBiT-GPCR construct library, NanoBRET)
T1 sequence (P08908 1-422): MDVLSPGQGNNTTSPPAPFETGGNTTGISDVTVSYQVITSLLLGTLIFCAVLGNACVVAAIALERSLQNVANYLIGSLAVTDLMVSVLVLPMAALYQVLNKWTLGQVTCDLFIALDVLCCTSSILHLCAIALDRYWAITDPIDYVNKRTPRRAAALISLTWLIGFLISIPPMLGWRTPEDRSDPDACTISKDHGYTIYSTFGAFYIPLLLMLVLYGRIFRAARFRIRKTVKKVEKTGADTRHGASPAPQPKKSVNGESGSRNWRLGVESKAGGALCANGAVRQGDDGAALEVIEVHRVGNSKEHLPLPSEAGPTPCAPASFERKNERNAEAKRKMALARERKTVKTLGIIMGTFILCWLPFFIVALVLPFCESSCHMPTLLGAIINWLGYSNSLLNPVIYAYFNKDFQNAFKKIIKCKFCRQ
Description: (§1) Each tracer candidate was screened across the entire library of HiBiT-GPCR constructs using NanoBRET as the detection modality. As depicted in Figure 4A, the specificity of interactions was evaluated through decrease in BRET due to competitive displacement of a bound tracer by excess parental compound. Each tracer was analyzed for binding to each HiBiT-GPCR fusion in the absence and in the presence of competing parental compound. Briefly, HEK293 cells were transfected with HiBiT-GPCR constructs diluted into promoterless DNA to reduce expression and maximize translocation to the cell surface. Each tracer candidate was then screened at concentrations of 1 μM and 0.1 μM across cells expressing these fusions. Cells were treated for 1.5 h with tracer either alone or in the presence of 20 μM competing parental compound (i.e., control). BRET was measured upon addition of purified LgBiT and subsequent complementation with HiBiT genetically fused to a GPCR. The specificity of interactions was assessed through a decrease in BRET signal due to competitive displacement of the bound tracer. To further gauge the robustness of these interactions, the fold response over the control (i.e., BRETtracer/BRETcontrol) was calculated. We chose a 1.5-fold response, which translates to ≥7-fold signal over noise as the minimal threshold required to score an interaction as positive.
(§2) HiBiT-GPCR DNA constructs were diluted in 10 mM Tris pH 8 to a final concentration of 0.01 μg/μL, arrayed in 96-well plates and stored at −20 °C. For transfection, HEK293 cells were suspended in Opti-MEM (without phenol red) supplemented with 2% fetal bovine serum (Seradigm) and 100 units/mL penicillin–streptomycin (Gibco) at a final concentration of 220,000 cells/mL and dispensed into white 96-well plates at 90 μL/well. Subsequent transfections and screens were carried using an Agilent Bravo Automated Liquid Handling Platform. First, the 96-well HiBiT DNA arrays were diluted 25-fold in Opti-MEM (without serum or phenol red) to a final concentration of 0.0004 μg/μL and 20 μL of the diluted DNAs were transferred into new 96-well plates. Next, promoterless carrier DNA (1 μg/μL) was diluted 25-fold (0.04 μg/μL) and then dispensed into the diluted arrays at 20 μL/well. Following brief mixing, Viafect transfection reagent (Promega) diluted 16-fold into Opti-MEM was dispensed into the plates at 40 μL/well. After mixing by pipetting, plates were incubated for 10 min on the pipetting station deck. The DNA-transfection reagent complexes were then added to plates containing cells. To facilitate the screen, 10 μL of DNA-transfection reagent complexes were added in duplicates to the top 4 and bottom 4 rows, resulting in two identical 48-well arrays per plate. Plates with transfected cells were incubated for 18–20 h at 37 °C/5% CO2. A screen of each tracer across the entire library using two different concentrations requires duplicate plates of transfected cells. Depending on the number of tracers being screened, transfections can be scaled up using the same ratios. The next day, for each tracer, four 20× screening solutions in tracer dilution buffer (Promega) were prepared: two duplicates at final concentration of 20 μM and two duplicates at a final concentration of 2 μM. […] The four resulting solutions were diluted 4-fold in Opti-MEM without serum or phenol red to generate 5× solutions (5 µM and 0.5 µM tracer +/− 100 μM competing compound). To screen the library, a BioTek MultiFlo FX liquid dispenser was used to dispense 22.5 µL of tracer solution to the top 4 rows and 22.5 µL tracer + competing compound solution to the 4 bottom rows. Plates were briefly mixed on an orbital shaker and incubated for 1.5 h at room temperature. […] Plates were briefly mixed on an orbital shaker and incubated for 15 min to allow complementation.

OPRM1 = biological target: T2, OPRM1 (Homo sapiens, UniProt P35372); assay: NanoBRET screen HiBiT-OPRM1 in HEK293; format: binding
T2 construct: purchased Promega (in-house HiBiT-GPCR construct library, NanoBRET)
Description: as §1, §2

[1] = tracer at 0.1μM, listed as amitriptyline-b-2-NB590
[2] = tracer at 1μM, listed as amitriptyline-b-2-NB590

T2 sequence (P35372 whole entry): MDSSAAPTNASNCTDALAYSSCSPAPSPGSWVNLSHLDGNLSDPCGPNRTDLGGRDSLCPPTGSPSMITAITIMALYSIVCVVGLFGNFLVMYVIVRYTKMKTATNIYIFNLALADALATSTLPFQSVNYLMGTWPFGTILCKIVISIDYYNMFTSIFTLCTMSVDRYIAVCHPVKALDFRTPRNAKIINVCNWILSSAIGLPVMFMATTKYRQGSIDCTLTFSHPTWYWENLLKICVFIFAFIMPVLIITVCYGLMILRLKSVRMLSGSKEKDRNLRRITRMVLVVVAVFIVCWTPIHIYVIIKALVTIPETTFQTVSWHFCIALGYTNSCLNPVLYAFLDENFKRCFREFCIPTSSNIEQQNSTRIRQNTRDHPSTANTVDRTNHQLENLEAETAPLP

NanoBRET Fold Response (HTR1A; HTR1A, 0.1μM): 0.97
NanoBRET Fold Response (HTR1A; HTR1A, 1μM): 1.04
NanoBRET Fold Response (OPRM1; OPRM1, 0.1μM): 1.07
NanoBRET Fold Response (OPRM1; OPRM1, 1μM): 0.95
SMILES: CCOC(=O)c1cc(C#N)c(N2CCC(C(=O)NS(=O)(=O)Cc3ccccc3/C=C/C(=O)NCCNC(=O)CCc3ccc4n3[B-](F)(F)[N+]3=C(c5ccc[nH]5)C=CC3=C4)CC2)nc1C [AZD1283-1-NB590]

NanoBRET Fold Response (HTR1A; HTR1A, tracer 0.1μM): 1.04
NanoBRET Fold Response (HTR1A; HTR1A, tracer 1μM): 0.98
NanoBRET Fold Response (OPRM1; OPRM1, tracer 0.1μM): 1.02
NanoBRET Fold Response (OPRM1; OPRM1, tracer 1μM): 1.01
SMILES: N#CN=C(NCCCOc1cccc(CN2CCCCC2)c1)NCCNC(=O)CCOCCOCCOCCOCCNC(=O)CCc1ccc2n1[B-](F)(F)[N+]1=C(c3ccc[nH]3)C=CC1=C2 [Aminopotentidine-2-NB590]

NanoBRET Fold Response (HTR1A; 0.1μM tracer): 1.02
NanoBRET Fold Response (HTR1A; 1μM tracer): 1.02
NanoBRET Fold Response (OPRM1; 0.1μM tracer): 1.22
NanoBRET Fold Response (OPRM1; 1μM tracer): 1.22
SMILES: COc1ccc2c(n1)c(CCNC(C)=O)cn2CCNC(=O)CCc1ccc2n1[B-](F)(F)[N+]1=C(c3ccc[nH]3)C=CC1=C2 [Azamelatonin-1-NB590]

NanoBRET Fold Response (HTR1A; 0.1μM tracer): 0.95
NanoBRET Fold Response (HTR1A; 1μM tracer): 1.15
NanoBRET Fold Response (OPRM1; 0.1μM tracer): 0.74
NanoBRET Fold Response (OPRM1; 1μM tracer): 0.86
SMILES: COc1ccc2[nH]c(-c3ccc(CNC(=O)CCOCCOCCOCCOCCNC(=O)CCc4ccc5n4[B-](F)(F)[N+]4=C(c6ccc[nH]6)C=CC4=C5)cc3)c(CCNC(C)=O)c2n1 [AzomelatoninICO9-2-NB590]

The remaining lines, values behind:

SMILES: N#CN/C(=N\CCNC(=O)c1ccc(N)cc1)NCCCOc1cccc(CN2CCCCC2)c1 [Aminopotentidine (unmodified)]
NanoBRET Fold Response (HTR1A; HTR1A, other tracers/Aminopotentidine (unmodified), 0.1μM): 1.28
NanoBRET Fold Response (HTR1A; HTR1A, other tracers/Aminopotentidine (unmodified), 1μM): 1.69
NanoBRET Fold Response (OPRM1; OPRM1, other tracers/Aminopotentidine (unmodified), 0.1μM): 1.22
NanoBRET Fold Response (OPRM1; OPRM1, other tracers/Aminopotentidine (unmodified), 1μM): 0.99

SMILES: CN(C)CCC=C1c2ccccc2CCc2ccc(C(=O)NCCNC(=O)CCOCCOCCOCCOCCNC(=O)CCc3ccc4n3[B-](F)(F)[N+]3=C(c5ccc[nH]5)C=CC3=C4)cc21 [Amitriptyline-a-2-NB590]
NanoBRET Fold Response (HTR1A; tracer at 0.1μM): 1.33
NanoBRET Fold Response (HTR1A; tracer at 1μM): 1.04
NanoBRET Fold Response (OPRM1; tracer at 0.1μM): 0.95
NanoBRET Fold Response (OPRM1; tracer at 1μM): 1.10

SMILES: CN(C)CCC=C1c2ccccc2CCc2ccc(C(=O)NCCNC(=O)CCOCCOCCOCCOCCNC(=O)CCc3ccc4n3[B-](F)(F)[N+]3=C(c5ccc[nH]5)C=CC3=C4)cc21 [Amitriptyline-b-2-NB590]
NanoBRET Fold Response (HTR1A; [1]): 1.19
NanoBRET Fold Response (HTR1A; [2]): 1.02
NanoBRET Fold Response (OPRM1; [1]): 0.87
NanoBRET Fold Response (OPRM1; [2]): 0.87

SMILES: CN(CCC=C1c2ccccc2CCc2ccccc21)C(=O)CCOCCOCCOCCOCCNC(=O)CCc1ccc2n1[B-](F)(F)[N+]1=C(c3ccc[nH]3)C=CC1=C2 [Amitriptyline-e-2-NB590]
NanoBRET Fold Response (HTR1A; tracer at 1μM): 0.99
NanoBRET Fold Response (OPRM1; tracer at 1μM): 1.04

SMILES: O=C(CCOCCOCCOCCOCCNC(=O)CCc1ccc2n1[B-](F)(F)[N+]1=C(c3ccc[nH]3)C=CC1=C2)NCCCN1CCN(C2=Nc3cc(Cl)ccc3Nc3ccccc32)CC1 [Clozapine-a-2-NB590]
NanoBRET Fold Response (HTR1A; HTR1A, 0.1μM tracer): 1.16
NanoBRET Fold Response (HTR1A; HTR1A, 1μM tracer): 0.98
NanoBRET Fold Response (OPRM1; OPRM1, 0.1μM tracer): 0.98
NanoBRET Fold Response (OPRM1; OPRM1, 1μM tracer): 1.13
